Assay results from the supplement of paper PMC10307832.

Compound: CC1=CN=C(N=C1C2=CNC(=C2)C(=O)N[C@H](CO)C3=CC(=CC=C3)Cl)NC4=C(C=C(C=C4)F)Cl [VX-11e] + COc1cc2c(Oc3ccc(NC(=O)C4(C(=O)Nc5ccc(F)cc5)CC4)cc3F)ccnc2cc1OCCCN1CCOCC1 [Foretinib] (partner 0.25 µM)
Experiment: relative viability (nuclei count vs DMSO), 5 days (fraction); higher = more cells survive
Outline: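 Cells from lung cancer lines were seeded into 1536-well plates and, one day later, dosed by pin tool. Treatments were either a single drug or a fixed dose of an anchor drug with five library-drug doses (not always all listed) in √10 steps. After 5 days, nuclei were stained in a one-step fixation (final 0.05% Triton X-100, 1% formaldehyde, 1 ug/ml Hoechst) and counted on 4× images, and relative viability is the treated-to-vehicle nuclei ratio, as the median of duplicate plates.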

Cell Line | relative viability (first compound 0.04 µM) | relative viability (first compound 0.1265 µM) | relative viability (first compound 0.4 µM) | relative viability (first compound 1.265 µM) | relative viability (first compound 4 µM)
LOU-NH91 | 0.92 | 0.896 | 0.577 | 0.94 | 0.782
HCC-15 | 1.07 | 0.897 |  | 0.558 | 0.357
HCC-827 | 1.07 | 1.09 | 1.04 | 1.13 | 0.739
NCI-H1703 | 0.383 | 0.33 |  | 0.317 | 0.28
NCI-H322M | 0.924 | 0.748 | 0.981 | 0.763 | 0.659
SK-LU-1 | 0.882 | 0.779 |  | 0.574 | 0.224
NCI-H2087 | 1.14 | 1.06 |  | 0.81 | 0.454
201T | 1.12 | 0.959 |  |  | 1.03
NCI-H1975 | 1.02 | 0.949 | 1.01 | 1.08 | 0.46
NCI-H2085 | 0.973 | 0.951 | 0.725 | 0.835 | 0.679
BEN |  | 0.633 | 0.966 | 0.451 | 0.557
SW 1573 | 0.947 | 0.902 | 0.78 | 0.86 | 0.708
NCI-H1793 | 0.589 | 0.603 |  | 0.748 | 0.411
RERF-LC-KJ | 1.01 | 0.886 | 0.901 | 0.856 | 0.813
NCI-H1437 | 1.27 | 1.25 | 1.32 | 1.36 | 0.677
NCI-H2009 | 1.33 | 1.18 | 1.06 | 0.857 | 0.509
NCI-H1395 | 1.05 | 0.898 | 0.931 | 1 | 0.666
PC-3 [JPC-3] | 1.06 | 0.972 | 1.05 | 1.08 | 0.769
NCI-H2342 | 1.15 | 1.1 | 0.98 | 1.07 | 0.893
IA-LM | 1.09 | 1.17 | 1.22 | 0.486 | 0.0917
NCI-H1734 | 0.941 | 0.852 | 0.81 | 0.706 | 0.344
NCI-H358 | 0.354 | 0.541 | 0.347 | 0.434 | 0.147
NCI-H650 | 1.09 | 1.04 | 1.1 | 0.993 | 1.1
LXF-289 | 1 | 0.877 | 0.88 | 0.85 | 0.637
NCI-H838 | 1.03 | 1.11 | 1.05 | 1.1 | 0.779

Cell Line | relative viability (first compound 0.04 µM) | relative viability (first compound 0.1265 µM) | relative viability (first compound 0.4 µM) | relative viability (first compound 1.265 µM) | relative viability (first compound 4 µM)
A-427 | 1.14 | 1.01 | 0.835 | 0.805 | 0.342
COR-L23 | 1.1 | 0.939 | 0.964 | 0.749 | 0.373
NCI-H596 | 0.854 | 0.952 | 0.775 | 0.79 | 0.506
NCI-H2347 | 0.761 | 0.877 | 0.46 | 0.67 | 0.652
EKVX | 0.765 | 0.927 | 0.812 | 0.675 | 0.466
HCC-78 |  | 0.54 | 0.542 | 0.514 | 0.496
NCI-H647 | 1.26 | 1.12 | 1.19 | 1.05 | 0.405
NCI-H2126 | 1.21 | 1.22 | 1.01 | 1.1 | 0.903
NCI-H520 | 0.746 | 0.715 | 0.69 | 0.919 | 0.569
EMC-BAC-2 | 1.05 | 0.921 | 1.08 | 0.982 | 0.697
NCI-H1755 | 0.925 | 0.931 | 0.905 | 0.945 | 0.598
SW 900 | 0.851 | 0.943 | 0.969 | 0.794 | 0.519
ABC-1 | 1.48 | 0.996 | 0.899 | 1.16 | 0.826
NCI-H661 | 1.03 | 1.04 | 1.05 | 1.07 | 0.66
H3255 | 0.734 | 0.963 | 0.87 | 0.918 | 0.948
CAL-12T | 1.1 | 1.03 | 1.07 | 1.07 | 0.561
NCI-H1915 | 1.12 | 1.08 | 1.16 | 1.13 | 0.791
NCI-H2023 | 0.811 | 0.771 |  | 0.513 | 0.42
NCI-H727 | 0.76 | 0.775 | 0.846 | 0.55 | 0.302
NCI-H2170 | 0.995 | 1.13 | 0.906 | 0.953 | 0.812
NCI-H1650 | 1.14 | 0.972 |  | 1.02 | 0.711
NCI-H1944 | 0.896 | 0.851 |  | 0.806 | 0.505
NCI-H1355 | 0.93 | 0.94 | 0.933 | 0.883 | 0.543
HOP-62 | 1.22 | 1.03 | 1.16 | 0.859 | 0.589
NCI-H2405 | 1.04 | 1.01 | 1.05 | 1.08 | 0.455

Cell Line | relative viability (first compound 0.04 µM) | relative viability (first compound 0.1265 µM) | relative viability (first compound 0.4 µM) | relative viability (first compound 1.265 µM) | relative viability (first compound 4 µM)
SK-MES-1 | 1.03 | 0.881 | 0.857 | 1.02 | 0.419
EPLC-272H | 0.622 | 0.559 |  | 0.361 | 0.261
A549 | 1.02 | 0.973 | 0.922 | 0.321 | 0.0913
NCI-H3122 | 0.948 | 0.897 |  | 0.851 | 0.487
NCI-H1993 | 0.786 | 0.818 | 0.857 | 0.734 | 0.667
LK-2 | 1.1 | 1.3 | 1.18 | 0.643 | 0.817
LCLC-103H | 0.867 | 0.694 | 0.858 | 0.656 | 0.67
HCC-366 | 1.01 | 0.876 |  | 0.851 | 0.701
NCI-H441 | 1.14 | 1.2 |  | 1.05 | 0.937
NCI-H1299 | 1.2 | 1.08 | 1.11 | 1.23 | 0.52
COR-L 105 | 1.39 | 1.1 | 0.963 | 0.562 | 0.653
Calu-6 | 0.969 | 0.869 | 0.829 | 0.397 | 0.103
NCI-H1563 | 1.02 | 0.832 | 0.862 | 0.922 | 0.763
NCI-H2228 | 0.79 | 0.936 |  | 0.482 | 0.275
LC-2-ad | 0.883 | 0.822 | 0.983 | 0.747 | 0.673
HARA | 0.857 | 0.856 | 0.841 | 0.734 | 0.343
PC-14 | 1.08 | 1.05 | 0.981 | 1.07 | 0.708
LCLC-97TM1 | 0.955 | 0.811 | 0.826 | 0.455 | 0.332
LU99A | 0.806 | 0.729 | 0.894 | 0.805 | 0.362
NCI-H1651 | 0.89 | 0.724 | 0.781 | 0.745 | 0.667
NCI-H460 | 0.872 | 0.984 | 0.896 | 0.872 | 0.189
UMC-11 | 1.05 | 0.946 | 0.986 | 0.976 | 0.905
ChaGo-K-1 | 0.878 | 0.855 | 0.941 | 0.923 | 0.928
NCI-H1666 | 0.957 | 0.853 | 0.87 | 0.692 | 0.546
NCI-H23 | 0.896 | 0.984 |  | 0.767 | 0.472
